For ten compounds, IC50 results are on record in patent publication US12421240B2, “Hydropyrazino[1,2-d][1,4]diazepine compounds for the treatment of autoimmune disease” (Hoffmann-La Roche Inc., priority 2019, dated 2025).

Each structure is given as a SMILES string.

The experiment addresses T1, human TLR7 (Homo sapiens, UniProt Q9NYK1).
T1 sequence (Q9NYK1 27-1049): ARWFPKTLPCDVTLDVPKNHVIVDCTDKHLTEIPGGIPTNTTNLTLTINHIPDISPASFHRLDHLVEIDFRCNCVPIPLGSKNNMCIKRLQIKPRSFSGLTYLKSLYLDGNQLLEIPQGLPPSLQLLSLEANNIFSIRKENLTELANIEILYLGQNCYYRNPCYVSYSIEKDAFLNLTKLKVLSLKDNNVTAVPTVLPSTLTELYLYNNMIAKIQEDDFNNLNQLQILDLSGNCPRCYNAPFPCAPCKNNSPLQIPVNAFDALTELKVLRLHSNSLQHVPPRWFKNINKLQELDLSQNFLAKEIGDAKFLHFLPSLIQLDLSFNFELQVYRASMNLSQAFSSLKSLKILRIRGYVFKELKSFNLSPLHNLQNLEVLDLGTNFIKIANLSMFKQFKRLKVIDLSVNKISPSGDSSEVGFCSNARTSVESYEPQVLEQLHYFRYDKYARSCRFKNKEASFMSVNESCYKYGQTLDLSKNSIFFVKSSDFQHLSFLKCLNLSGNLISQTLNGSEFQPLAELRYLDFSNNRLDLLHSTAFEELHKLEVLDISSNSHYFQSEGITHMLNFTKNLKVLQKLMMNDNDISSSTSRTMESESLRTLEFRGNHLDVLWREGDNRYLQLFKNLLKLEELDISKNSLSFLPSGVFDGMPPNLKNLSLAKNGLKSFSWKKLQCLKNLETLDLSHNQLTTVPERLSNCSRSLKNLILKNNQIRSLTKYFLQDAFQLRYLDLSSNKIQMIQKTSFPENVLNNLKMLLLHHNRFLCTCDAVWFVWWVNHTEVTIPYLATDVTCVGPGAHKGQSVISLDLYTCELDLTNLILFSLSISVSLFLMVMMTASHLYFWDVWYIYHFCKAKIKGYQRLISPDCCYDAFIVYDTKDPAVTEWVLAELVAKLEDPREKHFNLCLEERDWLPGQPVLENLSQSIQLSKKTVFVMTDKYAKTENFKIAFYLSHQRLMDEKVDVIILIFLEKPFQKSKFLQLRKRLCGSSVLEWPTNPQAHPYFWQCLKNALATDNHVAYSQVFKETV
Kind of experiment: HEK293-Blue-hTLR-7 cells assay (SEAP reporter, R848 stimulation). Type of experiment: cell-based. To be noted: HEK293-Blue-hTLR7 cells, R848 ligand, 20 hrs; read-out: HEK/hTLR7 IC50. How it is done: The following tests were carried out in order to determine the activity of the compounds of formula (I), (Ia) or (Ib) in HEK293-Blue-hTLR-7/8/9 cells assay.
HEK293-Blue-hTLR-7 Cells Assay:
A stable HEK293-Blue-hTLR-7 cell line was purchased from InvivoGen (Cat. #: hkb-htlr7, San Diego, California, USA). These cells were originally designed for studying the stimulation of human TLR7 by monitoring the activation of NF-κB. A SEAP (secreted embryonic alkaline phosphatase) reporter gene was placed under the control of the IFN-β minimal promoter fused to five NF-κB and AP-1-binding sites. The SEAP was induced by activating NF-κB and AP-1 via stimulating HEK-Blue hTLR7 cells with TLR7 ligands. Therefore the reporter expression was declined by TLR7 antagonist under the stimulation of a ligand, such as R848 (Resiquimod), for incubation of 20 hrs. The cell culture supernatant SEAP reporter activity was determined using QUANTI-Blue™ kit (Cat. #: rep-qb1, Invivogen, San Diego, Ca., USA) at a wavelength of 640 nm, a detection medium that turns purple or blue in the presence of alkaline phosphatase.
HEK293-Blue-hTLR7 cells were incubated at a density of 250,000-450,000 cells/mL in a volume of 170 μL in a 96-well plate in Dulbecco's Modified Eagle's medium (DMEM) containing 4.5 g/L glucose, 50 U/mL penicillin, […], […], 2 mM L-glutamine, 10% (v/v) heat-inactivated fetal bovine serum with addition of 20 μL test compound in a serial dilution in the presence of final DMSO at 1% and 10 μL of 20 uM R848 in above DMEM, perform incubation under 37° C. in a CO2 incubator for 20 hrs. Then 20 μL of the supernatant from each well was incubated with 180 μL Quanti-blue substrate solution at 37° C. for 2 hrs and the absorbance was read at 620655 nm using a spectrophotometer. The signaling pathway that TLR7 activation leads to downstream NF-κB activation has been widely accepted, and therefore similar reporter assay was modified for evaluating TLR7 antagonist.
Regarding `C[C@@H]1CN(c2ccc(C#N)c3ncccc23)C[C@@H]2CCN(Cc3cc4c(cn3)CCNC4)CCN21` [Example 9, 5-[(4R,10aS)-4-methyl-8-(5,6,7,8-tetrahydro-2,6-naphthyridin-3-ylmethyl)-1,3,4,6,7,9,10,10a-octahydropyrazino[1,2-d][1,4]diazepin-2-yl]quinoline-8-carbonitrile], the IC50 turned out to be 8.2 nM.
Consider `C[C@@H]1CN(c2ccc(C#N)c3ncccc23)C[C@@H]2CCN(Cc3ccc(N4CCOC[C@H](N)C4)cn3)CCN21` [Example 21, 5-[(4R,10aS)-8-[[5-[(6R)-6-amino-1,4-oxazepan-4-yl]-2-pyridyl]methyl]-4-methyl-1,3,4,6,7,9,10,10a-octahydropyrazino[1,2-d][1,4]diazepin-2-yl]quinoline-8-carbonitrile], for which the IC50 turned out to be 59.9 nM.
As to `C[C@@H]1CN(c2ccc(C#N)c3ncccc23)C[C@@H]2CCN(Cc3ccc(N4CCNCC4)nc3)CCN21` [Example 17, 5-[(4R,10aS)-4-methyl-8-[(6-piperazin-1-yl-3-pyridyl)methyl]-1,3,4,6,7,9,10,10a-octahydropyrazino[1,2-d][1,4]diazepin-2-yl]quinoline-8-carbonitrile], the IC50 worked out at 1.2 nM.
`C[C@@H]1CN(c2ccc(C#N)c3ncccc23)C[C@@H]2CCN(c3cnc(N4CCNCC4)nc3)CCN21` [Example 2, 5-[(4R,10aS)-4-methyl-8-(2-piperazin-1-ylpyrimidin-5-yl)-1,3,4,6,7,9,10,10a-octahydropyrazino[1,2-d][1,4]diazepin-2-yl]quinoline-8-carbonitrile]: the IC50 was 58.6 nM.
As for `C[C@@H]1CN(c2ccc(C#N)c3ncccc23)C[C@@H]2CCN(c3cc4c(cn3)CNCC4)CCN21` [Example 7, 5-[(4R,10aS)-4-methyl-8-(5,6,7,8-tetrahydro-2,7-naphthyridin-3-yl)-1,3,4,6,7,9,10,10a-octahydropyrazino[1,2-d][1,4]diazepin-2-yl]quinoline-8-carbonitrile], the IC50 is 61.3 nM.
The value for `C[C@@H]1CN(c2ccc(C#N)c3ncccc23)C[C@@H]2CCN(Cc3ncc(N4CCNCC4)cc3F)CCN21` [Example 23, 5-[(4R,10aS)-8-[(3-fluoro-5-piperazin-1-yl-2-pyridyl)methyl]-4-methyl-1,3,4,6,7,9,10,10a-octahydropyrazino[1,2-d][1,4]diazepin-2-yl]quinoline-8-carbonitrile] was 2.9 nM; that for `C[C@@H]1CN(c2ccc(C#N)c3ncccc23)C[C@@H]2CCN(c3ccc(N4CCNCC4)nc3)CCN21` [Example 1, 5-[(4R,10aS)-4-methyl-8-(6-piperazin-1-yl-3-pyridyl)-1,3,4,6,7,9,10,10a-octahydropyrazino [1,2-d][1,4]diazepin-2-yl]quinoline-8-carbonitrile] was 88.5 nM.
As to `C[C@@H]1CN(c2ccc(C#N)c3ncccc23)C[C@@H]2CCN(Cc3cccc(N4CCNCC4)n3)CCN21` [Example 18, 5-[(4R,10aS)-4-methyl-8-[(6-piperazin-1-yl-2-pyridyl)methyl]-1,3,4,6,7,9,10,10a-octahydropyrazino[1,2-d][1,4]diazepin-2-yl]quinoline-8-carbonitrile], the IC50 amounted to 12.1 nM.
`C[C@@H]1CN(c2ccc(C#N)c3ncccc23)C[C@@H]2CCN(Cc3cc4c(cn3)CNCC4)CCN21` [Example 8, 5-[(4R,10aS)-4-methyl-8-(5,6,7,8-tetrahydro-2,7-naphthyridin-3-ylmethyl)-1,3,4,6,7,9,10,10a-octahydropyrazino[1,2-d][1,4]diazepin-2-yl]quinoline-8-carbonitrile]: the IC50 amounted to 14.3 nM.
Regarding `CO[C@@H]1CN(c2cnc(CN3CC[C@H]4CN(c5ccc(C#N)n6nccc56)C[C@@H](C)N4CC3)c(F)c2)C[C@H]1N` [Example 26, 4-[(4R,10aS)-8-[[5-[(3R,4R)-3-amino-4-methoxy-pyrrolidin-1-yl]-3-fluoro-2-pyridyl]methyl]-4-methyl-1,3,4,6,7,9,10,10a-octahydropyrazino[1,2-d][1,4]diazepin-2-yl]pyrazolo[1,5-a]pyridine-7-carbonitrile], the IC50 was 35.8 nM.
